Measurements reported in the RepoRT retention time repository (doi:10.1021/acs.analchem.9b05135).

Test: RP, Waters ACQUITY UPLC BEH C18, 100 × 1 mm, 1.7 µm, -1 °C, 0.15 mL/min, estimated dead time 0.33 min; A: water + 0.1% formic acid; B: acetonitrile + 0.1% formic acid; gradient (min/%B) 0/5 8/25 14/70 20/95 23/95
Conditions: stereoisomer not certain

LC retention time | SMILES
0.6 min | CCC(=O)OC(CC(=O)[O-])C[N+](C)(C)C (centres undefined)
0.7 min | CC(C)(CO)C(O)C(=O)NCCC(=O)O (centres undefined)
0.6 min | NC(=NCCCC(N)C(=O)O)NC(CC(=O)O)C(=O)O (centres undefined)
0.7 min | CC(C)CC(=O)OC(CC(=O)[O-])C[N+](C)(C)C (centres undefined)
4.3 min | CC(C(=O)O)C(O)(CC(=O)O)C(=O)O (centres undefined)
0.6 min | C[N+](C)(C)CCO
0.8 min | NC(=O)CCC(N)C(=O)O (centres undefined)
0.7 min | CC(C)CC(N)C(=O)O (centres undefined)
0.6 min | CS(=O)CCC(N)C(=O)O (centres undefined)
0.7 min | C[N+](C)(C)CCOP(=O)(O)O
0.5 min | NC(=O)NCCCC(N)C(=O)O (centres undefined)
0.6 min | NC(COP(=O)(O)O)C(=O)O (centres undefined)
0.6 min | CSCCC(NC(C)=O)C(=O)O (centres undefined)
0.6 min | CC(=O)NC(CCC(=O)O)C(=O)O (centres undefined)
0.7 min | C[N+](C)(C)CC(O)CC(=O)[O-] (centres undefined)
0.7 min | CC(=O)OC(CC(=O)[O-])C[N+](C)(C)C (centres undefined)
0.6 min | CC(=O)NC(CCC(N)=O)C(=O)O (centres undefined)
0.6 min | CCCC(=O)OC(CC(=O)[O-])C[N+](C)(C)C (centres undefined)

The next lines start with the compound.

SMILES | LC retention time
CSCC1OC(n2cnc3c(N)ncnc32)C(O)C1O (centres undefined) | 0.7 min
Cc1c[nH]c(=O)[nH]c1=O | 0.7 min
CNCC(=O)O | 0.7 min
Cc1cn(C2CC(O)C(CO)O2)c(=O)[nH]c1=O (centres undefined) | 0.7 min
NC(=O)c1cccnc1 | 0.8 min
Nc1ccccc1C(=O)CC(N)C(=O)O (centres undefined) | 0.9 min
CC(=O)NC1C(OP(=O)(O)OP(=O)(O)OCC2OC(n3ccc(=O)[nH]c3=O)C(O)C2O)OC(CO)C(O)C1O (centres undefined) | 0.7 min
CC(C)C(N)C(=O)O (centres undefined) | 0.7 min
CC(N)C(=O)O (centres undefined) | 0.7 min
Cc1ncccc1C(N)=O | 0.7 min
NC(Cc1c[nH]c2ccccc12)C(=O)O (centres undefined) | 1.2 min
NC(CCC(=O)NC(CS)C(=O)NCC(=O)O)C(=O)O (centres undefined) | 3 min
Nc1ccnc(=O)[nH]1 | 4 min
Cc1cn(C2CC(O)C(COP(=O)(O)O)O2)c(=O)[nH]c1=O (centres undefined) | 1.2 min
NC(CCO)C(=O)O (centres undefined) | 0.9 min
C[S+](CCC(N)C(=O)O)CC1OC(n2cnc3c(N)ncnc32)C(O)C1O (centres undefined) | 0.6 min
